Key:
Male Wistar rats = assay: Cold stress model; type: in vivo; details: standard 1 mg/kg once daily over three days, cold stress at 4° C. for 1 hour; P<0.05, T-test
Description: Male Wistar rats with a body weight of 200-250 g (our own breeding) were randomly divided into groups. The carrier (lactose) in the volume of 0.5 mL/100 g s.c. was applied to the negative and positive control group. Test substances and the standard were applied once daily over three days in the dose of 2 mg/kg in the volume of 0.5 mL/100 g of body weight. The standard was applied in the dose of 1 mg/kg, in the volume of 0.5 mL/100 g of body weight.
On day three, 2 hours after the last treatment, all animals, except for the negative control group, were subjected to cold stress at 4° C. for 1 hour. After the stress, the animals were anaesthetized with thiopental (Pliva d.d.) and blood from all animals was drawn on K2 EDTA into test tubes. Plasma samples were frozen at −70° C. Corticosterone levels were determined by fluorimetric method according to Silber. Thymuses were removed from animals and weighed, and their weights were compared with the negative and positive control.

[1] = target: T1, alpha isoform of human glucocorticoid receptor (Homo sapiens, UniProt P04150); assay: Assay of binding to human glucocorticoid receptor ([3H]dexamethasone displacement in transfected COS-1 cells); details: 24 nM [3H]dexamethazone, COS-1 cells transfected with human GR alpha, 90 minutes at 37° C.
T1 construct: expressed in transfected cells; host or cells: COS-1 cells, transient transfection with pcDNA3.1 Hygro(+) carrying the GR alpha cDNA
T1 sequence (P04150 1-777): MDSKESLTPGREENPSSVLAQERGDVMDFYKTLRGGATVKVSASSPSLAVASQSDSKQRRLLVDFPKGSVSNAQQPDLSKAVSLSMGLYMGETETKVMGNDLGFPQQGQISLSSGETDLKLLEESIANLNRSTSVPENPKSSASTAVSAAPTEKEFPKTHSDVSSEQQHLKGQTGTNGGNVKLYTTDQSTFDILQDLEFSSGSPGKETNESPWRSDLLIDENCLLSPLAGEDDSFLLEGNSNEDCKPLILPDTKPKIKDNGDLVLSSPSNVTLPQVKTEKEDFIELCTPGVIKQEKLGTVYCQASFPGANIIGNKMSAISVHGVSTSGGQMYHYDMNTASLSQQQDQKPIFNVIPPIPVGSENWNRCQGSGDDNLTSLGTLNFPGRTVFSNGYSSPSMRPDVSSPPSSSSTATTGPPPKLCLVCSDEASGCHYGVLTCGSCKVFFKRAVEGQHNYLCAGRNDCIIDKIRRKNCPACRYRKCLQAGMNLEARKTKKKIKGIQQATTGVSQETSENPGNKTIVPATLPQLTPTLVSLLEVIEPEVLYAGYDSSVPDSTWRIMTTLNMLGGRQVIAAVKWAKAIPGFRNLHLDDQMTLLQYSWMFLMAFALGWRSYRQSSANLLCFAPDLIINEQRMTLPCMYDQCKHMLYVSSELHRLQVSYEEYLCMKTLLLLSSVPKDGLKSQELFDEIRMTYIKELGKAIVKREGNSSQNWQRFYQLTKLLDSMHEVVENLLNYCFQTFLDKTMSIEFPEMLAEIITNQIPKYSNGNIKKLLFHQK
Description: Assay of Binding to Human Glucocorticoid Receptor The gene for the alpha isoform of human glucocorticoid receptor was cloned by reverse polymerase chain reaction. The total RN A was isolated from human peripheral blood lymphocytes according to the instructions of the manufacturer (Qiagen), transcripted into cDNA with AMV reverse transcriptase (Roche) and the gene was multiplied by specific primers 1) [NT] ID NO:1] and 2) [NT] NO:1]. […] The medium was removed and 1 μg of DNA, 7 μl of PLUS reagent and 2 μl of Lipofectamin (Life Technologies) in 500 μl of DMEM were added per well. The cells were incubated at 37° C. in an atmosphere with 5% CO2 and after 5 hours the same volume of 20% FBS/DMEM was added. After 24 hours, the medium was completely changed. 48 hours after transfection, the test compounds in different concentrations and 24 nM [^3H]dexamethazone (Pharmacia) in DMEM medium were added. The cells were incubated for 90 minutes at 37° C. in an atmosphere with 5% CO2, washed three times with PBS buffer (Sigma) cooled to 4° C. (pH=7.4), and then lysed in Tris buffer (pH=8.0) (Sigma) with 0.2% of SDS (Sigma). After the addition of UltimaGold XR (Packard) scintillation liquid, the residual radioactivity was read in a Tricarb (Packard) β-scintillation counter.

Male Balb/C mice = assay: Model of lung eosinophilia in mice; type: in vivo; details: OVA-sensitised and challenged mice, daily i.n. or i.p.; t-test, p<0.05
Description: Model of Lung Eosinophilia in Mice Male Balb/C mice with a body weight of 20-25 g were randomly divided into groups, and sensitised by an i.p. injection of ovalbumin (OVA, Sigma) on day zero and day fourteen. On the twentieth day, the mice were subjected to a challenge test by i.n. (intranasal) application of OVA (positive control or test groups) or PBS (negative control). 48 hours after i.n. application of OVA, the animals were anaesthetized and the lungs were rinsed with 1 mL of PBS. The cells were separated on Cytospin 3 cytocentrifuge (Shandon). The cells were stained in Diff-Quick (Dade) and the percentage of eosinophils was determined by differential counting of at least 100 cells. Fluticasone (GlaxoWellcome) and beclomethasone ([…].) were used as standard substances, with positive and negative control. The compounds were administered daily i.n. or i.p. in different doses 2 days before the challenge test and up to the completion of the test.

Row | corticosterone plasma levels (Male Wistar rats) | weight of the thymus (Male Wistar rats) | Structure (SMILES) | affinity for glucocorticoid receptor (displacement of radioactive dexamethasone) [1] | number of eosinophils in the lung rinse with respect to positive control (Male Balb/C mice)
1 | statistically significantly reduced | reduced the weight of the thymus | CCCC1O[C@@H]2C[C@H]3[C@@H]4CCC5=CC(=O)C=C[C@]5(C)[C@H]4[C@@H](O)C[C@]3(C)[C@]2(C(=O)CO)O1 (stereo partly drawn) [budesonide] |  | 
2 |  |  | CC[C@H]1OC(=O)[C@H](C)[C@@H](O)[C@H](C)[C@@H](O)[C@](C)(O)C[C@@H](C)CN(CCCNC(=O)[C@H]2[C@H](C)CC3C4CCC5=CC(=O)C=C[C@]5(C)[C@@]4(F)[C@@H](O)C[C@@]32C)[C@H](C)[C@@H](O)[C@]1(C)O (stereo partly drawn) [Compound 2] | have the affinity for glucocorticoid receptor | statistically significantly reduced
3 | statistically significantly reduced | reduced the weight of the thymus | C[C@@H]1C[C@H]2[C@@H]3C[C@H](F)C4=CC(=O)C=C[C@]4(C)[C@@]3(F)[C@@H](O)C[C@]2(C)[C@@]1(O)C(=O)SCF [fluticasone] |  | 

From patent publication US7579334B2, “Compounds with anti-inflammatory activity” (GlaxoSmithKline Istrazivacki Centar Zagreb, priority 2003, dated 2009)
